Test: UV-vis spectroscopy estimate of lutein-ester dissolved in ethanol
Format: physicochemical
Settings: ethanol at 60° C., estimated from UV-vis spectroscopy; rest undissolved particles
Experimental: A suspension of lutein-ester (Blue California, Co.) was prepared by dissolving lutein-ester powder in ethanol at 60° C. under stirring. It is estimated from UV-vis spectroscopy that 20.0 wt % lutein-ester dissolves in ethanol at 60° C., and the rest are in the form of undissolved nanoparticles, mesoparticles, and microparticles. A solution of gum arabic (Sigma) was prepared by dissolving gum arabic in deionized water (18.2 Mega-Ohm·cm) at 60° C. under stirring until the gum arabic was completely dissolved and a clear solution was obtained.

lutein-ester
fraction of lutein-ester that dissolves in ethanol: 20.0 wt %

Reference: US8663690B2, “Method for nanoencapsulation” (William Marsh Rice University, priority 2006, dated 2014)
